# Experimental data taken from US20060217400A1, “Triazolopyrimidines, methods for the production thereof, use thereof for controlling harmful fungi, and substances containing said triazolopyrimidines” (priority 2002, published 2006).
# Tested on: Alternaria solani
# Test: Activity against early blight of tomato caused by Alternaria solani
# Assay type: in vivo
# Conditions: 250 ppm, spray on tomato leaves, rated after 5 days; untreated control 80% infected
# Protocol: The active compounds were formulated separately as a stock solution comprising 0.25% by weight of active compound in acetone or DMSO. 1% by weight of the emulsifier Uniperol® EL (wetting agent having emulsifying and dispersing action based on ethoxylated alkylphenols) was added to this solution. The stock solutions of the active compounds were diluted with water to the stated concentration. Leaves of potted plants of the cultivar “Golden Princess” were sprayed to runoff point with an aqueous suspension having the concentration of active compound stated below. The next day, the leaves were infected with an aqueous spore suspension of Alternaria solani in 2% biomalt solution having a density of 0.17×10^6 spore/ml. The plants were then placed in a water-vapor saturated chamber at temperatures between 20 and 22° C. After 5 days, the blight on the untreated, but infected control plants had developed to such an extent that the infection could be determined visually in %.
smiles,measurement,value
"CCC(C)Cc1c(-c2c(F)cc(F)cc2F)c(C)nc2nc(OC)nn12 (stereo not shown) [I-11, 2-Methoxy-5-methyl-6-(2,4,6-trifluorophenyl)-7-(2-methylbutyl)-1,2,4-triazolo[1,5a]pyrimidine]","infection of the leaves, determined visually",< 10%
